Experimental data published in patent publication US12290521B2, “Methods and materials for identifying and treating BET inhibitor-resistant cancers” (Mayo Foundation for Medical Education and Research, priority 2018, dated 2025).

How the values were obtained:
[1] = tested on: prostate cancer patient-derived organoid lines; experiment: Organoid cell viability assay (2D and 3D); format: cell-based, human; conditions: SPOP W131R-expressing organoid compared to two SPOP WT counterparts; 2D and 3D growth
Description: Organoid cells were obtained from Dr. Yu Chen from MSKCC and cultured according to the methodology as described elsewhere (Drost et al., Nat. Protoc., 11:347-358 (2016)). In brief, organoid cells were imbedded in 40 μL Matrigel each drop and cultured in FBS free DMEM/F12 medium supplied with several growth factors. Cell viability assays were conducted by plating 2,000 organoid cells per well of a collagen coated 96-well cell culture plate in […] media with vehicle (DMSO) control or JQ1 (0.05˜1 μM). Viable cells were counted by using a CellTiter-Glo (Promega) Luminescent Cell Viability Assay Kit.

BRD4 = experiment: Western blot of BRD4 protein, ubiquitination and half-life in DU145 cells; format: cell-based, human; conditions: DU145 cells; JQ1, 24 hours
Description: Co-Immunoprecipitation (Co-IP) Cells were harvested and lysed by IP buffer (50 mM Tris-HCl, pH 7.4, 150 mM NaCl, 1% Triton X-100, 1% sodium deoxycholate and 1% protease inhibitor cocktails) on ice for more than 15 minutes. Cell lysate was centrifuged for 15 minutes at 13,000 rpm at 4° C., and the supernatant was incubated with primary antibodies and protein A/G agarose beads (Thermo Fisher Scientific) with rotating at 4° C. overnight. The next day, the pellet was washed at least six times with 1×IP buffer on ice, and then subjected to western blotting analysis. Western Blotting
Cells were harvested and lysed by IP buffer (50 mM Tris-HCl, pH 7.4, 150 mM NaCl, 1% Triton X-100, 1% sodium deoxycholate and 1% protease inhibitor cocktails) on ice for more than 15 minutes. Cell lysate was centrifuged for 15 minutes at 13,000 rpm at 4° C., and the supernatant was quantified by BCA protein quantification assay. Equal amounts of protein sample were added into 4× sample buffer and boiled for 5 minutes. The sample was subjected to SDS-PAGE analysis and transferred to nitrocellulose membrane. The membrane was blocked by 5% milk for 1 hour at room temperature and incubated with primary antibody at 4° C. overnight. The next day, the membrane was washed three times with 1×TBST and incubated with horseradish peroxidase-conjugated secondary antibodies for 1 hour at room temperature. The protein bands were visualized by SuperSignal West Pico Stable Peroxide Solution (Thermo Fisher Scientific).

22Rv1 cells = experiment: Cell proliferation assay (MTS) and trypan blue assay; format: cell-based, human; conditions: JQ1 0.25 μM every other day
Description: CellTiter 96® AQueous One Solution Cell Proliferation Assay (MTS) (Promega) was used to measure cell growth according to the manufacturer's instructions. Briefly, cells were plated in 96-well plates at a density of 2,000 cells per well. At the indicated times, 20 μL of Cell Titer 96R Aqueous One Solution Reagent was added to medium. After incubating for 1 hour at 37° C. in the cell incubator, cell growth was measured in a microplate reader at 490 nm.
Trypan blue assay was performed to measure cell growth according to the manufacturer's instructions. Briefly, cells were plated in 6-well plates at a density of about 5×10^4 to about 1×10^5 cells per well. At the indicated time points, cells were trypsinized and suspended in 1 mL 1×PBS. 100 μL cells and 100 μL trypan blue solution (Sigma-Aldrich) were mixed, and the number of viable cells was measured using the Bio-Rad automated cell counter.

DUB3 = conditions: Borbely et al., Oncotarget 2015; cited from earlier work

Structure (SMILES): Cc1sc2c(c1C)C(c1ccc(Cl)cc1)=N[C@@H](CC(=O)OC(C)(C)C)c1nnc(C)n1-2 [JQ1]
- sensitivity of organoid to JQ1 [1]: resistant
- BRD4 polyubiquitination (BRD4): markedly inhibited
- cell growth (22Rv1 cells; EV-expressing 22Rv1 cells): inhibited growth
- effect on cell growth (22Rv1 cells; SPOP-F133V-expressing 22Rv1 cells): largely impeded
- DUB3 mRNA level (DUB3): rapid upregulation
